Source: patent US20250115595A1, “INHIBITORS OF HYPOXIA-INDUCIBLE FACTORS” (The Johns Hopkins University, priority 2021, published 2025)
Entries after “also recorded” stand apart in the source; their conditions may differ.

How the values were obtained:
[1] = system: Hepa1-6 HCC tumors; assay: Hepa1-6 tumor growth in syngeneic C57L mice; type: in vivo, mouse; conditions: 32-134D 40 mg/kg/d intraperitoneal
Experimental: To test whether 32-134D inhibits HCC growth in an immunocompetent mouse model, Hepa1-6 HCC cells were injected into the flank of syngeneic C57L mice (Darlington G J et al., J Natl Cancer Inst. 1980; 64(4):809-819). When tumors became palpable (treatment day 1), mice received daily intraperitoneal injections of 32-134D (40 mg/kg/d) versus vehicle control, or anti-Pd1 antibody versus IgG2a isotype control ([…] on days 1, 4, 7, 10, and 16), or both 32-134D and anti-Pd1. Tumors grew very rapidly in all mice treated with vehicle or IgG2a, necessitating euthanasia on or before day 24 (FIG. 9). Tumors regressed in 5 out of 12 mice treated with anti-Pd1, but two tumors recurred after the last antibody treatment (on day 16) for a tumor eradication rate of only 25%. […] Thus, addition of 32-134D increased the percentage of mice with a durable complete response to anti-Pd1 immune checkpoint blockade from 25% to 67%.
Protocols were approved by the Johns Hopkins University Animal Care and Use Committee and used in accordance with the NIH Guide for the Care and Use of Laboratory Animals (National Research Council, 2011). Female nude mice (NCI Athymic NCr-nu/nu) and male C57L/J mice were purchased from Charles River and The Jackson Laboratory, respectively. Hep3B (8×106) and Hepa1-6 (1×107) cells were implanted subcutaneously in 6- to 8-week-old mice, and tumor volume was calculated: V=abc×0.52. […]

[2] = system: intratumoral gene expression; assay: RT-qPCR and ELISA of Hepa1-6 tumor tissue; type: in vivo, mouse
Experimental: RNA was extracted using TRIzol Reagent (ThermoFisher). Quantitative Real-time PCR was conducted using SYBR Green PCR Master Mix (BioRad) and reactions were run using the BioRad thermal cycler (BioRad). The mRNA expression of target genes was normalized to the expression of 18S rRNA and the fold change (FC) was calculated based on the threshold cycle (Ct) as
Human (EPO, SCF, SDF1a, VEGFA) and mouse (Cxcl1, Cxcl2, Cxcl9, Cxcl10, Il6, Il10, IL22, Vegfa) protein concentrations in tumor homogenates were determined using ELISA kits (Table 4) from Novus Biologicals. Optical density was obtained at 450 nm (corrected for readings at 570 nm) using the VICTOR Nivo plate reader (PerkinElmer). Sample protein concentration was calculated by linear regression from a standard curve.

[3] = system: STZ mice; assay: STZ diabetic mouse model, intraocular dosing; type: in vivo; conditions: single intraocular injection 70 ng, 5 days
Experimental: The efficacy of 32-134D following intraocular administration with 70 ng, as well as a lower dose (14 ng), in OIR mice at P12 (J. Zhang et al., J Clin Invest 131 (2021)) was determined.
The efficacy of 32-134D following IVT administration was also evaluated in the STZ model. STZ mice that were hyperglycemic for 6 months were treated with a single intraocular injection with 70 ng 32-134D in 1 ul or with vehicle (DMSO) control. 5 days later vascular hyperpermeability was assessed by examining leakage of intravascular Evans blue dye in STZ mice.
Vascular permeability by Evans blue tracer method: Mice were anesthetized with a mixture of ketamine (50 mg/kg) and xylazine (5 mg/kg) and subjected to Evans blue (Sigma) (50 mg/kg) perfusion by penile vein injection. […] Images were captured by Zeiss fluorescent microscope or confocal microscopy and fluorescence quantified by image J software (NIH). […] Blinded quantification of the number of leaking vessels was performed by manual counting major leakage from capillaries from retinas of each group. Non-capillary artifactual Evans blue or FITC-dextran leakage due to flat mount processing as well as minor leakages were not included in the quantitation. […] Random fields were chosen from retinas where leakages were absent to determine baseline fluorescence that arise from capillaries. For quantification, high magnifications (20×) images were taken. […]

[4] = system: C57BL/6 mice; assay: Ischemia/reperfusion (I/R) model of vascular permeability; type: in vivo, mouse; conditions: 5 daily IP injections 40 mg/kg
Experimental: The ability of 32-134D to inhibit vascular permeability in retinal vein occlusion patients was evaluated using the ischemia/reperfusion (I/R) model for vascular permeability in ischemic retinal disease. Transient ischemia was induced in the left eye in 8-to-10-week-old male C57BL/6 mice; the right eye was used as the non-I/R control. Following ischemia, mice were treated with 5 daily IP injections of vehicle control or 32-134D at 40 mg/kg. 24 hours after the fifth IP injection, mice were euthanized, Evans blue perfusion was performed, and retina flat mounts were examined for vascular leakage. […] There was no difference between non-/R (healthy) eyes and I/R eyes treated with 32-134D.
Vascular permeability by Evans blue tracer method: Mice were anesthetized with a mixture of ketamine (50 mg/kg) and xylazine (5 mg/kg) and subjected to Evans blue (Sigma) (50 mg/kg) perfusion by penile vein injection. […] Images were captured by Zeiss fluorescent microscope or confocal microscopy and fluorescence quantified by image J software (NIH). […] Blinded quantification of the number of leaking vessels was performed by manual counting major leakage from capillaries from retinas of each group. Non-capillary artifactual Evans blue or FITC-dextran leakage due to flat mount processing as well as minor leakages were not included in the quantitation. […] For quantification, high magnifications (20×) images were taken. […]

Compound: Brc1ccc2c(-c3csc(-c4c[nH]c5c(Br)cccc45)n3)c[nH]c2c1 [Compound 32-134D, 4-(6-bromo-1H-indol-3-yl)-2-(7-bromo-1H-indol-3-yl)thiazole]
- mice with tumor eradication [1]: 4 of 12
- tumor growth [1]: marked inhibition of tumor growth in all mice
- tumor mRNAs encoding angiogenic factors and proteins mediating immunosuppression ([2]; Angpt14, Epo, Pgf, Vegfa, B7h4, Cd47, Cd70, Cd73, Glut1, Ldha, Pdl1, Tim3, RT-qPCR): significantly decreased
- Cxcl1, Il10 and Vegfa protein levels in tumors ([2]; ELISA on tumor lysates): significantly decreased levels
- Cxcl9 and Cxcl10 protein levels in tumors ([2]; ELISA on tumor lysates): significantly increased levels
- tumor expression of Cxcl9 and Cxcl10 mRNA ([2]; RT-qPCR): increased
- Cxcl1, Il6 and Il10 mRNA levels in tumor tissue ([2]; mouse, in vivo): decreased
- IL22 mRNA and protein expression in Hepa1-6 tumors ([2]; mouse, in vivo): inhibited
- vascular hyperpermeability (Evans blue leakage) [3]: effectively inhibited; also recorded: significant decrease
- vascular leakage in I/R eyes (Evans blue) [4]: significant reduction in vascular leakage
